Reference: patent US20220412975A1, “CHARACTERIZING MODULATORS OF ADAMTS-7 AND ADAMTS-12” (The Broad Institute, Inc., priority 2019, published 2022)

Columns and labels:
ADAMTS-7 = biological target: T1, ADAMTS-7 (Homo sapiens, UniProt Q9UKP4, A119V/A123T/A127T/A171V/A193G/A200T/A28V/A36P/A42G/A66V/A78S/A97T/D77A/DEL186-188/DEL228-233/E133D/E190K/E213K/E83Q/G114S/G115N/G117S/G196D/G27H/H100Y/H124S/H234Q/K153R/L143F/L192S/L20I/P189H/P201S/P29L/P33S/P79S/Q99P/R118N/R122Q/R174Q/R195Q/R215Q/R218H/R35L/R75A/R76Q/R87Q/R92L/S170E/S199R/S202G/S214H/T110I/T125V/V182M/V208G/V74A/W225K/Y209S); assay: ADAMTS-7 enzymatic activity FRET assay, testing of inhibitory compounds; assay type: biochemical
T1 construct: rat ADAMTS-7 signal peptide + prodomain (rat 1-217), fusion partner (N); 2xStrep tag (C); 6xHis tag (C); made in house; host or cells: Expi293 cells
T1 sequence (Q9UKP4 with tags, fused parts or gaps with the stated changes): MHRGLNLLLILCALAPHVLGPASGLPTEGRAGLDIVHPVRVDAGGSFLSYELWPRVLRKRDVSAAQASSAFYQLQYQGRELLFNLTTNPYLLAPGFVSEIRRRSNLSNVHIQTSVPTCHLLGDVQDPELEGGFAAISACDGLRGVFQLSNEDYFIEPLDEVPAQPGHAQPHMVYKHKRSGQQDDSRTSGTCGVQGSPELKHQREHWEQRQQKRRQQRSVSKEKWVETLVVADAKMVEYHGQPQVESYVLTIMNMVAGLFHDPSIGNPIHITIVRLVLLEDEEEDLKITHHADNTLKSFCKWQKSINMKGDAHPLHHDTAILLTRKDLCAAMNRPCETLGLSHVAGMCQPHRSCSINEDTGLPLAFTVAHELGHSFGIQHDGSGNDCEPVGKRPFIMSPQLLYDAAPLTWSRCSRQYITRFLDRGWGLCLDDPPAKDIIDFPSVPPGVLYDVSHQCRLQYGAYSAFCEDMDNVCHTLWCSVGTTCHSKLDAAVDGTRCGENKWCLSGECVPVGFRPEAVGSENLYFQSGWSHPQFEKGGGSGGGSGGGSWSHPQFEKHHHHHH
Protocol: Purified recombinant ADAMTS-7 (as of SEQ ID NO: 1 or SEQ ID NO: 2) was diluted in reaction buffer (20 mM HEPES pH 8.0, 150 mM NaCl, 5 mM CaCl2, 0.004% Brij, 10 μM ZnCl2) for a concentration of approximately 20 nM. 25 μl of the solution were transferred into each well of a 384-well white microtiter plate (Greiner Bio-One 781075) and 1 μl test compound solution (modulator/inhibitor dissolved in DMSO, at the corresponding concentration) or pure DMSO as a control were added per well. […] Amino acids […] are derived from Thrombospondin-1 sequence (275-289). An additional carboxyl glutamic acid was added after the QXL520 quencher to increase substrate solubility. The microtiter plate was incubated for 120 min at the temperature of 32° C. The increase of fluorescence intensity was measured in appropriate fluorescence plate reader (e.g. TECAN Ultra) using excitation wavelength of 485 nm and emission wavelength of 520 nm. IC50 values were calculated from percentage of inhibition of ADAMTS-7 activity as a function of test compound concentration. IC50 values derived using functional ADAMTS-7 according to SEQ ID NO: 1 or SEQ ID NO: 2, respectively, were not distinguishable, both laying within the experimental error.
(§1) The assays to determine the IC50 for ADAMTS inhibition were performed as described earlier herein.

ADAMTS-4 = biological target: T2, ADAMTS-4 (Homo sapiens, UniProt O75173); assay: Selectivity FRET assay ADAMTS4; assay type: biochemical; conditions: ADAMTS4 50 nM, Dabcyl-[…]-Glu(Edans)-NH2 1 μM, 120 min, 32° C.
T2 construct: purchased R&D 4307-AD
T2 sequence (O75173 213-837): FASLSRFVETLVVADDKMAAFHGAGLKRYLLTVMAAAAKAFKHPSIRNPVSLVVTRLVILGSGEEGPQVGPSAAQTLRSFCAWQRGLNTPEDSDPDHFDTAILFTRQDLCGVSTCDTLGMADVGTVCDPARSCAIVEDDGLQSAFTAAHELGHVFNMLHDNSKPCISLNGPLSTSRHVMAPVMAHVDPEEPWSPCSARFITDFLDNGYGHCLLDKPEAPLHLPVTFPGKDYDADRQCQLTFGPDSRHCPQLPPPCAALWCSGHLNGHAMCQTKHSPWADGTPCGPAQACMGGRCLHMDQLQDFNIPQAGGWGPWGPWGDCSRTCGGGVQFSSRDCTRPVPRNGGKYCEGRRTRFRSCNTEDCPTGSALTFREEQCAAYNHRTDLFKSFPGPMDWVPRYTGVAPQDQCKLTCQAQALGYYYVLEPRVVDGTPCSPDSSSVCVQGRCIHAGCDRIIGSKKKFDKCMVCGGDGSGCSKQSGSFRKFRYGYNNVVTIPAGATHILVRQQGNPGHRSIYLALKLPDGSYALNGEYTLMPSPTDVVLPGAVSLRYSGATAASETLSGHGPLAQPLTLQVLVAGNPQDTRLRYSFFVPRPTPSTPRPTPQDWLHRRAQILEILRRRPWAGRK
Protocol: The respective enzyme (see Table 4 below) was diluted in reaction buffer (50 mM Tris, 2.5 μM ZnCl2, 0.05% BSA, 0.001% Brij, pH 7.5 for ADAM17; 50 mM Tris 7.5, 150 mM NaCl, 10 mM CaCl2, 0.05% Brij for all other enzymes) to the respective concentration and 25 μl were transferred into each well of a 384-well white microtiter plate (Greiner Bio One 781075). 1 μl test compound solution (dissolved in DMSO, at the corresponding concentration) or pure DMSO as a control was added per well. The enzymatic reaction was initiated by addition of 25 μl of the respective concentration of the respective FRET substrate (see Table 4 below) in reaction buffer. The microtiter plate was incubated for 120 min at the temperature of 32° C. The increase of fluorescence intensity was measured in appropriate fluorescence plate reader (e.g. TECAN Ultra) using the respective wavelengths for excitation and emission. IC50 values were calculated from percentage of inhibition of enzyme activity as a function of test compound concentration.
Table 4. Assay conditions for the evaluation of the selectivity of ADAMTS-7 modulators. Abbreviations: Dabcyl: 4-((4-(dimethylamino)phenyl)azo)benzoic acid; Glu(Edans): L-glutamic acid-γ-[2-(1-sulfonyl-5-naphthyl)-aminoethylamide]; Mca: (7-Methoxycoumarin-4-yl)acetyl; Dap(Dnp): (2S)-3-(2,4-dinitroanilino)-2-(9H-fluoren-9-ylmethoxycarbonylamino)propanoic acid; Dpa: N-3-(2, 4-Dinitrophenyl)-L-2,3-diaminopropionyl.
as §1

| IC50 (ADAMTS-7) [nM] | IC50 (ADAMTS-4) [nM] | SMILES |
| --- | --- | --- |
| 52 | 4690 | Cn1cc(-c2cc(C(=O)NC[C@@]3(C4CC4)NC(=O)NC3=O)on2)cn1 [Example 12.5, N-{[(4R)-4-cyclopropyl-2,5-dioxoimidazolidin-4-yl]methyl}-3-(1-methyl-1H-pyrazol-4-yl)-1,2-oxazole-5-carboxamide] |
| 140 | 4750 | O=C1NC(=O)[C@](CNC(=O)c2cnn(-c3ccc(F)cn3)n2)(C2CC2)N1 [Example 12.1, N-{[(4R)-4-cyclopropyl-2,5-dioxoimidazolidin-4-yl]methyl}-2-(5-fluoropyridin-2-yl)-2H-1,2,3-triazole-4-carboxamide] |
| 355 | 24000 | O=C1NC(=O)[C@](CNC(=O)c2cnn(-c3cnccn3)n2)(C2CC2)N1 [Example 12.2, N-{[(4R)-4-cyclopropyl-2,5-dioxoimidazolidin-4-yl]methyl}-2-(pyrazin-2-yl)-2H-1,2,3-triazole-4-carboxamide] |
